Reference: the NIST ThermoML archive (doi:10.1021/je9001575)

How the values were obtained:
[1] = Crystal; Adiabatic calorimetry
[2] = Molar enthalpy of transition or fusion; conditions: Crystal; Adiabatic calorimetry
[3] = molar heat capacity at constant volume; conditions: Liquid, Vacuum adiabatic calorimetry

CC(C)C [2-methylpropane]
Conditions	Molar enthalpy of transition or fusion [kcal/mol]	Triple point temperature [K]
[1]	–	113.71
[2]	1.074	–

[3]
Conditions	molar heat capacity at constant volume [J/K/mol]
119.82 K, 6500 kPa	71.22
122.33 K, 10732 kPa	71.61
124.97 K, 15325 kPa	72.14
127.43 K, 20667 kPa	72.63
130.02 K, 25536 kPa	73.32
132.43 K, 28973 kPa	73.82
141.37 K, 4922 kPa	73.32
143.72 K, 9088 kPa	73.74
146.26 K, 13401 kPa	74.25
148.59 K, 17196 kPa	74.72
151.09 K, 21305 kPa	75.18
153.38 K, 24872 kPa	75.69
155.84 K, 28673 kPa	76.28
162.3 K, 4549 kPa	75.71
164.6 K, 8126 kPa	76.26
167.03 K, 11587 kPa	76.59
169.29 K, 14798 kPa	77.08
171.69 K, 18296 kPa	77.43
173.93 K, 21461 kPa	78.06
176.29 K, 24825 kPa	78.43
178.5 K, 27869 kPa	78.99
180.83 K, 31062 kPa	79.8
183.24 K, 4049 kPa	78.07
185.45 K, 6869 kPa	78.63
187.83 K, 9994 kPa	79.02
190.01 K, 12743 kPa	79.62
192.38 K, 15769 kPa	79.81
194.51 K, 18415 kPa	80.61
196.86 K, 21369 kPa	81.16
198.97 K, 23939 kPa	81.69
201.31 K, 26822 kPa	81.98
203.38 K, 29282 kPa	82.49
203.62 K, 3700 kPa	80.96
205.69 K, 32085 kPa	83.13
205.82 K, 6192 kPa	81.19
208.09 K, 8785 kPa	82.04
210.26 K, 11205 kPa	82.36
212.53 K, 13758 kPa	83
214.66 K, 16095 kPa	83.42
216.92 K, 18597 kPa	83.89
219.02 K, 20866 kPa	84.44
221.26 K, 23313 kPa	85
223.33 K, 25507 kPa	85.63
224.21 K, 3209 kPa	84.09
225.57 K, 27916 kPa	85.85
226.5 K, 5490 kPa	84.53
227.6 K, 30036 kPa	86.44
228.59 K, 7563 kPa	85.18
229.83 K, 32388 kPa	86.73
230.86 K, 9783 kPa	85.57
232.95 K, 11833 kPa	86.15
235.18 K, 13991 kPa	86.65
237.26 K, 16001 kPa	87.31
239.46 K, 18103 kPa	87.79
241.54 K, 20084 kPa	88.35
243.72 K, 22131 kPa	88.62
244.91 K, 2940 kPa	87.7
245.77 K, 24074 kPa	89.4
246.88 K, 4626 kPa	88.13
247.92 K, 26062 kPa	89.81
249.24 K, 6667 kPa	88.84
249.98 K, 27977 kPa	90.18
251.17 K, 8311 kPa	89.23
252.11 K, 29918 kPa	91.01
253.54 K, 10334 kPa	89.74
254.15 K, 31797 kPa	91.18
255.44 K, 11931 kPa	90.33
257.8 K, 13926 kPa	90.58
259.68 K, 15488 kPa	91.3
262.03 K, 17452 kPa	91.98
263.88 K, 18974 kPa	92.4
264.62 K, 2580 kPa	91.58
266.23 K, 20919 kPa	93.11
266.61 K, 4054 kPa	92.14
268.06 K, 22404 kPa	93.8
268.91 K, 5781 kPa	92.42
270.4 K, 24318 kPa	94.15
270.88 K, 7235 kPa	92.99
272.22 K, 25772 kPa	94.9
273.17 K, 8940 kPa	93.07
274.56 K, 27659 kPa	95.07
275.12 K, 10363 kPa	94.06
276.36 K, 29087 kPa	95.35
277.4 K, 12047 kPa	94.2
278.68 K, 30942 kPa	95.99
279.34 K, 13450 kPa	95.2
280.46 K, 32342 kPa	96.46
281.62 K, 15113 kPa	95.82
283.54 K, 16491 kPa	96.18
283.66 K, 2372 kPa	95.67
285.76 K, 3730 kPa	96.28
285.81 K, 18136 kPa	97.4
287.72 K, 19487 kPa	97.22
287.93 K, 5135 kPa	96.68
289.99 K, 21118 kPa	98.16
290.04 K, 6483 kPa	97.37
291.87 K, 22438 kPa	98.44
292.18 K, 7863 kPa	98.07
294.14 K, 24048 kPa	99.1
294.3 K, 9205 kPa	98
296.01 K, 25350 kPa	99.94
296.42 K, 10563 kPa	98.75
298.28 K, 26943 kPa	99.99
298.53 K, 11894 kPa	98.97
300.14 K, 28222 kPa	100.48
300.64 K, 13229 kPa	100.03
302.39 K, 29793 kPa	100.74
302.75 K, 14551 kPa	100.42
303.81 K, 2271 kPa	99.83
304.25 K, 31058 kPa	101.52
304.85 K, 15868 kPa	101.01
306.07 K, 3504 kPa	100.71
306.5 K, 32612 kPa	102.04
306.98 K, 17187 kPa	101.25
308.12 K, 4631 kPa	100.8
309.04 K, 18478 kPa	102.38
310.38 K, 5860 kPa	101.98
311.17 K, 19783 kPa	102.14
312.42 K, 6973 kPa	101.82
312.62 K, 2143 kPa	102.01
313.23 K, 21063 kPa	102.98
314.68 K, 8197 kPa	102.64
314.81 K, 3247 kPa	102.19
315.35 K, 22355 kPa	103.37
316.7 K, 9293 kPa	102.97
316.95 K, 4329 kPa	103.28
317.39 K, 23611 kPa	103.51
318.98 K, 10517 kPa	103.88
319.15 K, 5436 kPa	103.12
319.53 K, 24899 kPa	104.29
320.98 K, 11596 kPa	104.6
321.27 K, 6508 kPa	104.19
321.55 K, 26133 kPa	104.78
322.43 K, 2027 kPa	103.88
323.27 K, 12819 kPa	104.79
323.48 K, 7612 kPa	104.96
323.69 K, 27412 kPa	105.09
324.79 K, 3113 kPa	105.07
325.25 K, 13880 kPa	105.73
325.59 K, 8668 kPa	104.99
325.7 K, 28633 kPa	106.08
326.81 K, 4037 kPa	105.22
327.54 K, 15099 kPa	105.76
327.82 K, 9782 kPa	105.71
327.84 K, 29902 kPa	106.3
329.14 K, 5110 kPa	105.78
329.51 K, 16147 kPa	106.45
329.84 K, 31107 kPa	106.78
329.89 K, 10815 kPa	106.1
331.17 K, 6040 kPa	106.74
331.81 K, 17362 kPa	106.57
331.98 K, 32367 kPa	107.91
332.14 K, 11928 kPa	106.39
333.49 K, 7102 kPa	106.91
333.76 K, 18392 kPa	107.16
333.97 K, 33555 kPa	107.88
334.19 K, 12947 kPa	107.66
335.53 K, 8034 kPa	107.69
336.06 K, 19603 kPa	107.61
336.45 K, 14061 kPa	107.61
337.84 K, 9085 kPa	108.12
338 K, 20617 kPa	108.51
338.49 K, 15066 kPa	108.51
339.89 K, 10016 kPa	108.49
340.31 K, 21824 kPa	108.42
340.75 K, 16177 kPa	108.82
342.19 K, 11067 kPa	108.69
342.23 K, 22826 kPa	110.23
342.77 K, 17169 kPa	109.53
344.24 K, 11989 kPa	109.21
344.55 K, 24029 kPa	109.59
